Reference: patent US6284768A, “Src family SH2 domain inhibitors” (Boehringer Ingelheim Pharmaceuticals, Inc., priority 1999, dated 2001)

Assays:
[1] = molecular target: T1, p56lck GST-SH2 (lck SH2 domain) (Homo sapiens, UniProt P06239); assay: Receptor-ligand equilibrium binding constants by surface plasmon resonance (biosensor), lck SH2 domain; conditions: Table 1, compounds of formula (II)
T1 construct: GST (N)

[2] = system: Inter-leukin 2 (IL-2) production by activated Human Primary T Lymphocytes; assay: Primary T cell assay: inhibition of IL-2 production by activated human primary CD4 positive T lymphocytes; type: cell-based; conditions: Homo sapiens, CD4 positive, Table 5; mean IC50 value; CD4 positive T cells activated with anti-CD3/anti-CD28, IL-2 by ELISA; read-out: IC50 (blocking IL-2 production)
Procedure: Summary of Primary T Cell Assay.
Inhibitors of the lck SH2 domain were assayed for their ability to block Inter-leukin 2 (IL-2) production by activated Human Primary T Lymphocytes. Peripheral blood mononuclear cells were isolated from whole blood by centrifugation in ficoll-Pague partitioning medium. CD4 positive cells were purified using negative selection. […] The compounds, at the appropriate dilutions, were added, and the cells were incubated for 60 minutes at 37° C. The CD4 positive T cells were then activated by the addition of anti-CD3 (60 ng/mL), anti CD28 (500 ng/mL) and goat anti mouse IgG coated beads, and incubated overnight at 37° C. The cells were pelleted, and the supernatents assayed for IL-2 by ELISA.
As SH2 domain containing proteins are intracellular, any therapeutic agent must be able to cross biological membranes. […] These characteristics may be quantified by observing inhibition in IL-2 production in human blood CD4 positive T-lymphocytes after T cell receptor and CD28 cross-linking.

T1 sequence (P06239 127-224 limits assumed): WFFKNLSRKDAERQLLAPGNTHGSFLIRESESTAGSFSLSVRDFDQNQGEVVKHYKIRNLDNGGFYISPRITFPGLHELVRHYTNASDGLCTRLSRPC

SMILES	Kd [1] [µM]	IC50 [2] [µM]
COc1ccc(Cn2ccc(C)c(NC(=O)[C@H](Cc3ccc(C4(C(=O)O)CC4)cc3)NC(=O)Cc3ccc4ccccc4c3)c2=O)cc1 [Compound 218, 3-[2'-(S)-(2""-Naphthylacetyl)amino-3'-[4"-(1'"-carboxy)cyclopropyl]benzene]propanoylamino-1-(4-methoxybenzyl)-4-methyl-2-pyridone]	1.8	90
COc1ccc(Cn2c(C)cc(C)c(NC(=O)[C@H](Cc3ccc(C(C)(C)C(=O)O)cc3)NC(=O)Cc3ccc4ccccc4c3)c2=O)cc1 [Compound 219]	2.2	70
CCCCCCn1cc(-c2ccccc2)c(C)c(NC(=O)C(Cc2ccc(C(C)(C)C(=O)O)cc2)NC(=O)Cc2ccc3ccccc3c2)c1=O (stereo not shown) [Compound 231]	< 8	57

Continued by falling Kd [1], values first:

Kd [1] [µM]	IC50 [2] [µM]	SMILES
1.2	69	CCc1cn(Cc2ccc(OC)cc2)c(=O)c(NC(=O)C(Cc2ccc(C(C)(C)C(=O)O)cc2)NC(=O)Cc2ccc3ccccc3c2)c1C (stereo not shown) [Compound 222]
0.17	31	COc1ccc(Cn2cc(Br)c(C)c(NC(=O)[C@H](Cc3ccc(C(C)(C)C(=O)O)cc3)NC(=O)Cc3ccc4ccccc4c3)c2=O)cc1 [Compound 220, 3-[2'-(S)-(2""-Naphthylacetyl)amino-3'-[4"-(1'"-carboxy-1'"-methyl)ethyl]benzene]propanoylamino-5-bromo-1-(4-methoxybenzyl)-4-methyl-2-pyridone]
